For this assay, the target named is Human factor D (Homo sapiens (Human), UniProt P00746). Kind of assay: Human Factor D Assay. It counts as biochemical. To be noted: human factor D 80 nM, substrate Z-L-Lys-SBzl, DTNB, OD405. The method in brief: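 Serum-purified human factor D (80 nM final) preincubated with compound 5 min at room temperature in 50 mM Tris, 1M NaCl, pH 7.5. Z-L-Lys-SBzl and DTNB added at 10 μM final each; OD405 followed kinetically over 30 min. IC50 by non-linear regression of percent inhibition.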

SMILES strings stand for the structures.

In general, IC50 refers to the concentration needed to halve the response being measured.

Human factor D, sequence (P00746 26-253): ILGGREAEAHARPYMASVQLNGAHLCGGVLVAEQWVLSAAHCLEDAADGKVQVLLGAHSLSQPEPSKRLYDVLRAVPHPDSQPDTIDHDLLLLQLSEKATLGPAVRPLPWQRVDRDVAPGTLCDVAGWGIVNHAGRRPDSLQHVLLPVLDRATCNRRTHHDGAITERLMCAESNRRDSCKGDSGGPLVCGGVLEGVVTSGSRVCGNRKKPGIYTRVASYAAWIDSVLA

As for `Cc1cc2c(s1)c(C(N)=O)nn2CC(=O)N1C[C@H](F)C[C@H]1C(=O)Nc1cccc(-c2ccccc2Cl)c1F` [Compound 113, 1-(2-((2S,4R)-2-(2′-chloro-2-fluorobiphenyl-3-ylcarbamoyl)-4-fluoropyrrolidin-1-yl)-2-oxoethyl)-5-methyl-1H-thieno[3,2-c]pyrazole-3-carboxamide], the IC50 is < 1 µM.

As for `CC(=O)c1cn(CC(=O)N2C[C@H](F)C[C@H]2C(=O)Nc2cccc(-c3ccccc3Cl)c2F)c2c(-c3cn[nH]c3)cccc12` [Compound 114, (2S,4R)-1-(2-(3-acetyl-7-(1H-pyrazol-4-yl)-1H-indol-1-yl)acetyl)-N-(2′-chloro-2-fluorobiphenyl-3-yl)-4-fluoropyrrolidine-2-carboxamide], the IC50 is < 1 µM.

On to `CC(=O)c1cn(CC(=O)N2C[C@H](F)C[C@H]2C(=O)Nc2cccc(-c3ccccc3Cl)c2F)c2c(C3CC3)cccc12` [Compound 115, (2S,4R)-1-(2-(3-acetyl-7-cyclopropyl-1H-indol-1-yl)acetyl)-N-(2′-chloro-2-fluorobiphenyl-3-yl)-4-fluoropyrrolidine-2-carboxamide], for which the IC50 was < 1 µM.

Take `CC(=O)c1ccc(Cl)c(-c2cccc(NC(=O)[C@@H]3C[C@@H](F)CN3C(=O)Cn3nc(C(N)=O)c4ccccc43)c2F)c1` [Compound 117, 1-(2-((2S,4R)-2-(5′-acetyl-2′-chloro-2-fluorobiphenyl-3-ylcarbamoyl)-4-fluoropyrrolidin-1-yl)-2-oxoethyl)-1H-indazole-3-carboxamide]: the IC50 was < 1 µM.

As for `Cc1cc2c(s1)c(C(N)=O)nn2CC(=O)N1C[C@H](F)C[C@H]1C(=O)Nc1cccc(Br)n1` [Compound 118, 1-(2-((2S,4R)-2-(6-bromopyridin-2-ylcarbamoyl)-4-fluoropyrrolidin-1-yl)-2-oxoethyl)-5-methyl-1H-thieno[3,2-c]pyrazole-3-carboxamide], the 50% inhibitory concentration (IC50) is < 1 µM.

With `CC(=O)c1cn(CC(=O)N2C[C@H](F)C[C@H]2C(=O)Nc2cccc(Br)n2)c2ccc(C3(NC(=O)c4ncccn4)CC3)cc12` [Compound 119, N-(1-(3-acetyl-1-(2-((2S,4R)-2-(6-bromopyridin-2-ylcarbamoyl)-4-fluoropyrrolidin-1-yl)-2-oxoethyl)-1H-indol-5-yl)cyclopropyl)pyrimidine-2-carboxamide], the half-maximal inhibitory concentration (IC50) was < 1 µM.

For `NC(=O)c1nn(CC(=O)N2C[C@H](F)C[C@H]2C(=O)Nc2cccc(-c3cc(OC(F)(F)F)ccc3Cl)c2F)c2ccccc12` [Compound 120, 1-(2-((2S,4R)-2-(2′-chloro-2-fluoro-5′-(trifluoromethoxy)biphenyl-3-ylcarbamoyl)-4-fluoropyrrolidin-1-yl)-2-oxoethyl)-1H-indazole-3-carboxamide], the IC50 is < 1 µM.

For `NC(=O)c1cn(CC(=O)N2C[C@H](F)C[C@H]2c2nc3cc(-c4ccccc4Cl)ccc3[nH]2)c2ccccc12` [Compound 121, 1-(2-((2S,4R)-2-(5-(2-chlorophenyl)-1H-benzo[d]imidazol-2-yl)-4-fluoropyrrolidin-1-yl)-2-oxoethyl)-1H-indole-3-carboxamide], the half-inhibitory concentration (IC50) was > 10 µM.

`NC(=O)c1nn(CC(=O)N2C[C@H](F)C[C@H]2C(=O)Nc2cccc(-c3ccc4[nH]cnc4c3Cl)c2F)c2ccccc12` [Compound 122, 1-(2-((2S,4R)-2-(3-(4-chloro-1H-benzo[d]imidazol-5-yl)-2-fluorophenylcarbamoyl)-4-fluoropyrrolidin-1-yl)-2-oxoethyl)-1H-indazole-3-carboxamide]: the concentration for half-maximal inhibition (IC50) was < 1 µM.

Consider `CC(=O)c1cn(CC(=O)N2C[C@H](F)C[C@H]2C(=O)Nc2cccc(Br)n2)c2ccc(C3(NC(=O)OC(C)(C)C)CC3)cc12` [Compound 123, tert-butyl 1-(3-acetyl-1-(2-((2S,4R)-2-(6-bromopyridin-2-ylcarbamoyl)-4-fluoropyrrolidin-1-yl)-2-oxoethyl)-1H-indol-5-yl)cyclopropylcarbamate], for which the IC50 was < 1 µM.

Take `CC(=O)c1cn(CC(=O)N2C[C@H](F)C[C@H]2C(=O)Nc2cccc(-c3ccccc3Cl)c2F)c2c(C#Cc3ncc(F)cn3)cccc12` [Compound 124, (2S,4R)-1-(2-(3-acetyl-7-((5-fluoropyrimidin-2-yl)ethynyl)-1H-indol-1-yl)acetyl)-N-(2′-chloro-2-fluorobiphenyl-3-yl)-4-fluoropyrrolidine-2-carboxamide]: the 50% inhibitory concentration (IC50) is < 1 µM.

The values above are taken from patent US9758537B2 (Achillion Pharmaceuticals, Inc., priority 2014, dated 2017).
